The values below come from patent US11274100B2, “EP300/CREBBP inhibitor” (Daiichi Sankyo Company, Limited, priority 2017, dated 2022).

The structures appear in SMILES notation. Bounds are passed on as bounds.

The target in test [1] is EP300 (Homo sapiens, UniProt Q09472). The test can be described thus: Histone acetyltransferase inhibitory activity against EP300 (Test Example 1). The format is biochemical. As to conditions: 50 ng/mL EP300, 2 μM Acetyl-CoA, 100 nM Histone H4(1-25)-GSGSK (Biotin), 28° C. for 1 hour. The procedure, abridged:
(§1)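 Enzyme (50 ng/mL EP300 or 125 ng/mL CREBBP) incubated 1 h at 28° C with 2 μM acetyl-CoA, 100 nM biotinylated histone H4(1-25) peptide and 10 to 0.0006 μM compound in pH 8.0 Tris buffer with 330 nM trichostatin A, 1% DMSO. Reaction stopped with Lys-CoA; acetylation read by TR-FRET (Eu-anti pan-Ac/Sta-ULight) after overnight room-temperature incubation.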

For test [2], the target named is CREBBP (Homo sapiens, UniProt Q92793). The test can be described thus: Histone acetyltransferase inhibitory activity against CREBBP (Test Example 1). The format is biochemical. As to conditions: 125 ng/mL CREBBP, 2 μM Acetyl-CoA, 100 nM Histone H4(1-25)-GSGSK (Biotin), 28° C. for 1 hour. In a few lines:
as §1

For test [3], the system named is H3K27Ac. The test can be described thus: Intracellular H3K27Ac inhibitory activity in LK2 cells (Test Example 2). The format is cell-based. As to conditions: Homo sapiens, LK-2, cultured with compound for 3 hours, read-out: Test Example 2 H3K27Ac Inhibition (LK2) IC50. In a few lines:
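Human squamous lung cancer LK2 cells (40000/well) cultured overnight at 37 °C, 5% CO2 before treatment. After paraformaldehyde fixation, peroxide quench and blocking, H3K27 acetylation detected with anti-acetyl-H3K27 rabbit mAb (4 °C overnight) and HRP secondary; chemiluminescent read-out.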

The test system of test [4] is LK2 cells. The test is described as follows: Cell growth inhibitory activity, LK2 cells (Test Example 3). The format is cell-based. The note with it: Homo sapiens, LK-2, 72 h, cultured for 3 days, CellTiter-Glo. The method, then: (§2) [Test Example 3] Evaluation of Cell Growth Inhibitory Activity
(§3) As a culture medium for each cell, a 10% FBS supplemented RPMI 1640 medium (for LK2 cells and TE-8 cells derived from human esophageal cancer) was used. LK2 cells were purchased from Human Science Research Resources Bank, and TE-8 cells were purchased from Riken Cell Bank. The compound of each of Examples 1 to 108b was prepared by dilution with Freedom EVO 150 (Tecan Trading AG) (4-fold diluted, 10 stages, 10 mM to 38 nM). The resultant was added to respective wells of a 384-well plate in an amount of 40 nL/well using Echo 555 (Labcyte Inc.). The LK2 or TE-8 cells were seeded in the plate at 400 cells/40 μL/well (day 0), and were cultured for 3 days. On the day of addition of the compound (day 0) and 3 days after the addition of the compound (day 3), an ATP measurement reagent of CellTiter-Glo (registered trademark) 2.0 Assay (Promega Corporation, #G9242) was added to each well in an amount of 10 μL/well, and the amount of luminescence of each well was measured using EnVision. Based on the amount of luminescence (C0) on the day of the addition of the compound, and the amounts of luminescence of a compound non-addition group (C3) and a compound addition group (T3) obtained after the 3-day culture of the compound, a cell survival rate was calculated in accordance with the following expression: Cell survival rate (%)=(T3−C0)/(C3−C0)×100
(§4) A concentration (GI50 value) of each compound at which the growth of the TE-8 or LK-2 cells was inhibited by 50% was calculated by semilogarithmically plotting the cell survival rate at each concentration and the compound concentration.
(ATP-based viability assays read luminescence as a measure of living cells.)

Test [5] relates to TE-8 cells. The test can be described thus: Cell growth inhibitory activity, TE-8 cells (Test Example 3). The format is cell-based. The note with it: Homo sapiens, 72 h, cultured for 3 days, CellTiter-Glo. The method, then:
as §2, §3, §4

Sequence of CREBBP (Q92793 whole entry): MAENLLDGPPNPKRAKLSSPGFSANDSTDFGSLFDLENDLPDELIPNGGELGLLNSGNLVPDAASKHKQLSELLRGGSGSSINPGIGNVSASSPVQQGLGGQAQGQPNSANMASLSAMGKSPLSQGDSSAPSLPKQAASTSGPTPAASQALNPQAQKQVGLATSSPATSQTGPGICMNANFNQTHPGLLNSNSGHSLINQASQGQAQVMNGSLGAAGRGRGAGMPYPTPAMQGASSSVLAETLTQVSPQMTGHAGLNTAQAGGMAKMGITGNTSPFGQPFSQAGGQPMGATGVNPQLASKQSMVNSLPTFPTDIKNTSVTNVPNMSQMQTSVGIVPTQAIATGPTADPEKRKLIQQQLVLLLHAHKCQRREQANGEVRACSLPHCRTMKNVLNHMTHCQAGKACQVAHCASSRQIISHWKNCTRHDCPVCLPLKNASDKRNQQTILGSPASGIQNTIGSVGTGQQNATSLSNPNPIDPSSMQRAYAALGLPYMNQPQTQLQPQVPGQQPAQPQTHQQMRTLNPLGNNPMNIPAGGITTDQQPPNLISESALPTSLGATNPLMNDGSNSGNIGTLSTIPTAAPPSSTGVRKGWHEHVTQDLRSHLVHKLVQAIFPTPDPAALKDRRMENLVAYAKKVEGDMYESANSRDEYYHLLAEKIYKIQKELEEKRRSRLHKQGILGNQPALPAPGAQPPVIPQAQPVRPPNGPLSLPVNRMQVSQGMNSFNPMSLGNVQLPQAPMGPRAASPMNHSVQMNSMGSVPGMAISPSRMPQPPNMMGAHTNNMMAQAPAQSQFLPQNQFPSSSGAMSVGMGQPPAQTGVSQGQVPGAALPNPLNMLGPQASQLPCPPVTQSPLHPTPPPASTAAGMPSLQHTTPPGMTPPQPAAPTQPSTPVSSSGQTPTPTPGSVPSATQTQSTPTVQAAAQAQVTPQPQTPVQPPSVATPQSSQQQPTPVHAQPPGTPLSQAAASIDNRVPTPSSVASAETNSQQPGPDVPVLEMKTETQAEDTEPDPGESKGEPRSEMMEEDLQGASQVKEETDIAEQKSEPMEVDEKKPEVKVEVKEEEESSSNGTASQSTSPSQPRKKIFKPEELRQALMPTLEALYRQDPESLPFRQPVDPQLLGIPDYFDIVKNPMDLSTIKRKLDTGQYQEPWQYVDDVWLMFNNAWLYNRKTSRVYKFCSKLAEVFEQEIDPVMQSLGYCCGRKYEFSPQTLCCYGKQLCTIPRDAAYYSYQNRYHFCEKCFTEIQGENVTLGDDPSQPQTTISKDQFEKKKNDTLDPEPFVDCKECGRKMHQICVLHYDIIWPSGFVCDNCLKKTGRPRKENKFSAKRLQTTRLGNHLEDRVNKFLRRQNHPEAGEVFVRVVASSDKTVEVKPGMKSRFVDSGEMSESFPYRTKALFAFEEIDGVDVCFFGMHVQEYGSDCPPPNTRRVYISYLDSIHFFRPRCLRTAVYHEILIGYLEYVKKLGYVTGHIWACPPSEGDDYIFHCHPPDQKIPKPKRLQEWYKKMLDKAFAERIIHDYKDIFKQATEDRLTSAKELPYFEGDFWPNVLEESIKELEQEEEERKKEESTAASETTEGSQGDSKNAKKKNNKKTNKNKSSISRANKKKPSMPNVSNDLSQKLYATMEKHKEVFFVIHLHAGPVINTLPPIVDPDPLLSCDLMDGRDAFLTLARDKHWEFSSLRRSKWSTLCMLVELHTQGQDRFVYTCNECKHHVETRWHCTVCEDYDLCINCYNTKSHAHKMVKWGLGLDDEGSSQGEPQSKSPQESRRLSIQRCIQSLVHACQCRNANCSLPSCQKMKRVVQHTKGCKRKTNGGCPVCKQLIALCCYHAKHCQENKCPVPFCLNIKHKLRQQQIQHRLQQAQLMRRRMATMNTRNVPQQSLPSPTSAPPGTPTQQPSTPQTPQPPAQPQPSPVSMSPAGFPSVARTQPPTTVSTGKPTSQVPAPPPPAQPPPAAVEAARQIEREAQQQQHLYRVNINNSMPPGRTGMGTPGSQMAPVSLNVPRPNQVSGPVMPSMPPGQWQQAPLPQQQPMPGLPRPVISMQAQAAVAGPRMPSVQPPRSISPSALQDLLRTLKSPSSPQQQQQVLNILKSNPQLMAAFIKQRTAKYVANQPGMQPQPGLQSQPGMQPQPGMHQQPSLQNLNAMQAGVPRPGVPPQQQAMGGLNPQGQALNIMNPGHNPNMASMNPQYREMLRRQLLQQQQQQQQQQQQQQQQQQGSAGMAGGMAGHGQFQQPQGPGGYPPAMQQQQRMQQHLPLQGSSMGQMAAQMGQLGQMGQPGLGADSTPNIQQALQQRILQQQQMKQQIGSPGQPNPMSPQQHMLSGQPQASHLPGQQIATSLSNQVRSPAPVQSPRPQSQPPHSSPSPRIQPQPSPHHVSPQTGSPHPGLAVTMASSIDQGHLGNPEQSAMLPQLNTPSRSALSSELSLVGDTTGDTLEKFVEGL
Sequence of EP300 (Q09472 whole entry): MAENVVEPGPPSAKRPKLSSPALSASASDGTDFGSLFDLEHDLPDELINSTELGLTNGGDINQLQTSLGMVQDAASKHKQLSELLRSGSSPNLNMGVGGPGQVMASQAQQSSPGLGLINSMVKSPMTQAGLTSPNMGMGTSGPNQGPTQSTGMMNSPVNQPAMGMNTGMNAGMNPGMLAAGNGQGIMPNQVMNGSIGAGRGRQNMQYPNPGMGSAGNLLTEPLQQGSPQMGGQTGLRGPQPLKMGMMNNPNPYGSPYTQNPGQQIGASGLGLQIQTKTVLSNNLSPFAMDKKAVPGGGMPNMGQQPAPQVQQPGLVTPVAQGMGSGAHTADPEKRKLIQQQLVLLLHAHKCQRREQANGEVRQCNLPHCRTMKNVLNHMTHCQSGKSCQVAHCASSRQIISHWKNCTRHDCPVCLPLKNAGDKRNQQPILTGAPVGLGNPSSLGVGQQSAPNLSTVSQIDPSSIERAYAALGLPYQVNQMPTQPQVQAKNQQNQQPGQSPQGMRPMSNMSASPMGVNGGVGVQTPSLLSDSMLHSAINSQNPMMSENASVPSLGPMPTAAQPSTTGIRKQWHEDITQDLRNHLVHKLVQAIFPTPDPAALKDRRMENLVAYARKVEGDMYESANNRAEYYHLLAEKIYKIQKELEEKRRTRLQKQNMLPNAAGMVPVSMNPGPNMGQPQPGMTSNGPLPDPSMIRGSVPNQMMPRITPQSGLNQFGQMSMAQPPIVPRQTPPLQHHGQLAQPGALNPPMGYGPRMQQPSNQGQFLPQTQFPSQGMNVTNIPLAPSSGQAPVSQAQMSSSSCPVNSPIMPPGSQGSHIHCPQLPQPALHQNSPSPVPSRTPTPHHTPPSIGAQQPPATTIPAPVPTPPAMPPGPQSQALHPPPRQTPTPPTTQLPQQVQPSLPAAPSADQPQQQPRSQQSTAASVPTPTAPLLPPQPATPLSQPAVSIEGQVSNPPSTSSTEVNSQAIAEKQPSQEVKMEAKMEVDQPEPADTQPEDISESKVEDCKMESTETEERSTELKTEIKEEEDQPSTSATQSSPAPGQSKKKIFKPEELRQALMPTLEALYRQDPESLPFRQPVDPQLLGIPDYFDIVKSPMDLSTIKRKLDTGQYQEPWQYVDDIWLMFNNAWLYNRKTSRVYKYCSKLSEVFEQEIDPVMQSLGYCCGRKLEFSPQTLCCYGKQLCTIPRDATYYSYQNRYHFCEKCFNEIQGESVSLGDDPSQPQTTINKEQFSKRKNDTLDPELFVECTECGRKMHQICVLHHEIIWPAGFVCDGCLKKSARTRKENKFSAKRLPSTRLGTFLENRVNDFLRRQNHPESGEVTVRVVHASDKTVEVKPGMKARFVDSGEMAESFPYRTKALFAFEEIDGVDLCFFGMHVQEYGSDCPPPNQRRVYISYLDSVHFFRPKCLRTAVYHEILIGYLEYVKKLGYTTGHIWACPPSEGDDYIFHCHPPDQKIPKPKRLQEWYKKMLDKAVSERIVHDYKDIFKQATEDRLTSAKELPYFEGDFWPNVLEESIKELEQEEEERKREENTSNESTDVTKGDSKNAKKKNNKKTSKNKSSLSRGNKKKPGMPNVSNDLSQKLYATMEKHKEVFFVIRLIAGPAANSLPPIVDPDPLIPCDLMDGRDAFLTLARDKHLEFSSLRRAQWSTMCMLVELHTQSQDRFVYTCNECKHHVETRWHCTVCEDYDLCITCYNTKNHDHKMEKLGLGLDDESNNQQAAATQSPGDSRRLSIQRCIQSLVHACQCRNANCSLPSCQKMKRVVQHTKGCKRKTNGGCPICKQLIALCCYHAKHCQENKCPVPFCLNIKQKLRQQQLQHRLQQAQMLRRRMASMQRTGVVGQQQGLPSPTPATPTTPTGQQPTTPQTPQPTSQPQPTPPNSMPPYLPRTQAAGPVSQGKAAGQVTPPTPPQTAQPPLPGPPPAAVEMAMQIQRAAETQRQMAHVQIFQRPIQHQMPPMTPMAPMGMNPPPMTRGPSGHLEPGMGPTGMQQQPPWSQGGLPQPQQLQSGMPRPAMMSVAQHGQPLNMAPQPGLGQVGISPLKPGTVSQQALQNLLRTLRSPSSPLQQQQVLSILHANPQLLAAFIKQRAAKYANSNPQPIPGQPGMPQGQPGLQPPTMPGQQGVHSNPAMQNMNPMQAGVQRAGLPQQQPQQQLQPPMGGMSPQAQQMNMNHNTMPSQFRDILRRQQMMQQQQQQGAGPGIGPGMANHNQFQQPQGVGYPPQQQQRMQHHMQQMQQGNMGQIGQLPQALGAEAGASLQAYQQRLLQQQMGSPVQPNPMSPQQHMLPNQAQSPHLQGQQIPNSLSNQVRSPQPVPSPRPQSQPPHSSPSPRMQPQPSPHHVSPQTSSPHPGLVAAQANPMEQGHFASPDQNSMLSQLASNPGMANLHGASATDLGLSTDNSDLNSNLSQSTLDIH

On to `COc1ccc(C2(C(=O)N3CS(=O)(=O)C[C@@H]3C(=O)Nc3ccc4[nH]ncc4n3)CCC(F)(F)CC2)cc1` [Example 68, (4S)-3-{[4,4-Difluoro-1-(4-methoxyphenyl)cyclohexyl]carbonyl}-N-(1H-pyrazolo[4,3-b]pyridin-5-yl)-1,3-thiazolidine-4-carboxamide 1,1-dioxide], for which the IC50 – broadly, the concentration at which inhibition is half-maximal – in test [1] worked out at 49 nM; in test [2], 122 nM; in test [3] it was 42 nM. Further, the concentration for 50% growth inhibition (GI50) – broadly, the concentration at which growth is held to half of that of the control – in test [4] was determined as 510 nM; in test [5], 819 nM.

Consider `COc1ccc(C2(C(=O)N(C)[C@H](CCO)C(=O)Nc3ccc4[nH]ncc4n3)CCC(F)(F)CC2)cc1` [Example 69, 4,4-Difluoro-N-[(2R)-4-hydroxy-1-oxo-1-(1H-pyrazolo[4,3-b]pyridin-5-ylamino)butan-2-yl]-1-(4-methoxyphenyl)-N-methylcyclohexanecarboxamide], for which the IC50 turned out to be 157 nM in test [1], 239 nM in test [2] and 402 nM in test [3]. For the same compound, the GI50 in test [4] was 3120 nM; in test [5], 4190 nM.

Regarding `COc1ccc(C2(C(=O)N3C[C@H](F)C[C@@H]3C(=O)Nc3cc4ccccn4n3)CCCCC2)cc1` [Example 70, (4R)-4-Fluoro-1-{[1-(4-methoxyphenyl)cyclohexyl]carbonyl}-N-pyrazolo[1,5-a]pyridin-2-yl-D-prolinamide], the IC50 came to 60 nM in test [1], 52 nM in test [2] and 94 nM in test [3]. Further, the GI50 in test [4] was 729 nM; in test [5], 1070 nM.

On to `COc1ccc(C2(C(=O)N3C[C@@H](O)C[C@@H]3C(=O)Nc3ccc4[nH]ncc4n3)CCCCC2)cc1` [Example 71, (4S)-4-Hydroxy-1-{[1-(4-methoxyphenyl)cyclohexyl]carbonyl}-N-1H-pyrazolo[4,3-b]pyridin-5-yl-D-prolinamide], for which the IC50 in test [1] was found to be 99 nM; in test [2], 94 nM; in test [3], 139 nM. Also, the results for the GI50 in test [4] and in test [5] were 797 nM and 1540 nM, respectively.

With `COc1ccc(C2(C(=O)N(CCO)CC(=O)Nc3ccc4[nH]ncc4n3)CCC(F)(F)CC2)cc1` [Example 72, 4,4-Difluoro-N-(2-hydroxyethyl)-1-(4-methoxyphenyl)-N-[2-oxo-2-(1H-pyrazolo[4,3-b]pyridin-5-ylamino)ethyl]cyclohexanecarboxamide], the values for the IC50 in test [1], in test [2] and in test [3] were 177 nM, 182 nM and 1150 nM, respectively. Besides, the GI50 in test [4] and in test [5] was over 10000 nM each time.

With `COc1ccc(C2(C(=O)N3CC[C@@H](O)[C@@H]3C(=O)Nc3ccc4[nH]ccc4n3)CCC(F)(F)CC2)cc1` [Example 74, (3R)-1-{[4,4-Difluoro-1-(4-methoxyphenyl)cyclohexyl]carbonyl}-3-hydroxy-N-1H-pyrrolo[3,2-b]pyridin-5-yl-D-prolinamide], the IC50 is 58 nM in test [1], 86 nM in test [2] and 86 nM in test [3]. Besides, the GI50 in test [4] was determined as 271 nM; in test [5] it was 599 nM.

As to `COc1ccc(C2(C(=O)N3CC(=O)C[C@@H]3C(=O)Nc3ccc4[nH]ccc4n3)CCC(F)(F)CC2)cc1` [Example 75, 1-{[4,4-Difluoro-1-(4-methoxyphenyl)cyclohexyl]carbonyl}-4-oxo-N-1H-pyrrolo[3,2-b]pyridin-5-yl-D-prolinamide], the IC50 is 43 nM in test [1], 77 nM in test [2] and 67 nM in test [3]. Besides, the GI50 was 398 nM in test [4] and 613 nM in test [5].

As for `[2H]C([2H])([2H])N(C(=O)C1(c2ccc(OC)cc2)CCC(F)(F)CC1)[C@H](CO)C(=O)Nc1ccc2[nH]ncc2n1` [Example 76, 4,4-Difluoro-N-[(2R)-3-hydroxy-1-oxo-1-(1H-pyrazolo[4,3-b]pyridin-5-ylamino)propan-2-yl]-1-(4-methoxyphenyl)-N—(^2H3)methylcyclohexanecarboxamide], the IC50 in test [1] turned out to be 43 nM; in test [2] it was 92 nM; in test [3] it was 12 nM. Moreover, the GI50 in test [4] was 68.9 nM; in test [5], 127 nM.

Take `[2H]C([2H])([2H])N(C(=O)C1(c2ccc(OC)cc2)CCC(F)(F)CC1)[C@H](CO)C(=O)Nc1ccc2[nH]ccc2n1` [Example 77, 4,4-Difluoro-N-[(2R)-3-hydroxy-1-oxo-1-(1H-pyrrolo[3,2-b]pyridin-5-ylamino)propan-2-yl]-1-(4-methoxyphenyl)-N—(^2H3)methylcyclohexanecarboxamide]: the IC50 came to 41 nM in test [1], 53 nM in test [2] and 15 nM in test [3]. In addition, the figures for the GI50 in test [4] and in test [5] were 102 nM and 199 nM, respectively.

With `COc1ccc(C2(C(=O)N(C)[C@@H](C(=O)Nc3ccc4[nH]ncc4n3)[C@@H](C)O)CCC(F)(F)CC2)cc1` [Example 78, 4,4-Difluoro-N-[(2R,3R)-3-hydroxy-1-oxo-1-(1H-pyrazolo[4,3-b]pyridin-5-ylamino)butan-2-yl]-1-(4-methoxyphenyl)-N-methylcyclohexanecarboxamide], the values for the IC50 in test [1], in test [2] and in test [3] were 259 nM, 323 nM and 769 nM, respectively. The GI50 in test [4] was found to be 2150 nM; in test [5], 4630 nM.

As for `COc1ccc(C2(C(=O)N3CS(=O)(=O)C[C@@H]3C(=O)Nc3ccc4[nH]c(C)cc4n3)CCC(F)(F)CC2)cc1` [Example 79, (4S)-3-{[4,4-Difluoro-1-(4-methoxyphenyl)cyclohexyl]carbonyl}-N-(2-methyl-1H-pyrrolo[3,2-b]pyridin-5-yl)-1,3-thiazolidine-4-carboxamide 1,1-dioxide], the half-maximal inhibitory concentration (IC50) in test [1] worked out at 181 nM; in test [2] it was 193 nM; in test [3] it was 268 nM. The results for the GI50 in test [4] and in test [5] were 1390 nM and 1670 nM, respectively.

For the compound `COc1ccc(C2(C(=O)N(C)[C@@H](C(=O)Nc3ccc4[nH]ncc4n3)[C@H](C)O)CCC(F)(F)CC2)cc1` [Example 80, 4,4-Difluoro-N-[(2R,3S)-3-hydroxy-1-oxo-1-(1H-pyrazolo[4,3-b]pyridin-5-ylamino)butan-2-yl]-1-(4-methoxyphenyl)-N-methylcyclohexanecarboxamide], the IC50 in test [1] was 78 nM; in test [2], 91 nM; in test [3] it was 17 nM. For the same compound, the GI50 worked out at 141 nM in test [4] and 277 nM in test [5].

For `CC(C)(O)c1ccc(C2(C(=O)N3C[C@H](F)C[C@@H]3C(=O)Nc3ccc4[nH]ncc4n3)CCCCC2)cc1` [Example 81a, (4R)-4-Fluoro-1-({1-[4-(2-hydroxypropan-2-yl)phenyl]cyclohexyl}carbonyl)-N-1H-pyrazolo[4,3-b]pyridin-5-yl-D-prolinamide], the IC50 in test [1] was 52 nM; in test [2], 83 nM; in test [3], 23 nM. Also, the GI50 stood at 167 nM in test [4] and 176 nM in test [5].

On to `COC(=O)c1ccc(C2(C(=O)N3C[C@H](F)C[C@@H]3C(=O)Nc3ccc4[nH]ncc4n3)CCCCC2)cc1` [Example 81b, methyl 4-(1-{[(2R,4R)-4-Fluoro-2-(1H-pyrazolo[4,3-b]pyridin-5-ylcarbamoyl)pyrrolidin-1-yl]carbonyl}cyclohexyl)benzoate], for which the IC50 in test [1] is 41 nM; in test [2] it was 64 nM; in test [3] it was 16 nM. Further, the GI50 in test [4] was found to be 231 nM; in test [5], 258 nM.

For `O=C(Nc1ccc2[nH]ncc2n1)[C@H]1C[C@@H](F)CN1C(=O)C1(c2ccc(O)cc2)CCCCC1` [Example 82, (4R)-4-Fluoro-1-{[1-(4-hydroxyphenyl)cyclohexyl]carbonyl}-N-1H-pyrazolo[4,3-b]pyridin-5-yl-D-prolinamide], the values for the IC50 in test [1], in test [2] and in test [3] were 12 nM, 21 nM and 13 nM, respectively. For the same compound, the GI50 stood at 75.1 nM in test [4] and 89.3 nM in test [5].
